The values below come from patent US3991202A, “Imidazolium salts” (Janssen Pharmaceutica N.V., priority 1974, dated 1976).

Holding throughout (experiment): Antifungal growth inhibition in Sabouraud's liquid medium
Holding throughout (format): cell-based

One assay deals with Microsporum canis. Conditions: M.c., tested at 100, 10, 1 μg/ml; for MIC: Microsporum canis, 336 h, read-out: Concentrations in μg/ml for 100% Inhibition of Growth. The procedure: (§1) Tests for the control of fungal organisms were performed using Sabouraud's liquid medium (1 g. of neopeptone Difco and 2 g. of glucose Difco per 100 ml. distilled water) in test tubes, each containing 4.5 ml. of liquid medium, autoclaved at 120° C for 15 minutes. The imidazolium salts were prepared for testing by dissolving in 50% ethanol to a concentration of 20 mg./ml. and thereafter diluting with sterile distilled water to obtain a concentration of 10 mg./ml. Successive decimal dilutions were then made with sterile distilled water to prepare a series of test solutions. In carrying out the test, 0.5 ml. of one of the test solutions is added to 4.5 ml. of Sabouraud's liquid medium to obtain a test medium. In this manner, from appropriate test solution, test media containing 100 μg, 10 μg and 1 μg of imidazolium salt per milliliter of medium were obtained.
(§2) Control tubes were prepared by adding 0.5 ml. of sterile distilled water to 4.5 ml. of medium. Ethanol was also added to simulate the amount which would be present in the test media. Filamentous fungi were incubated at 25° C for two to three weeks. A square block of side 2 mm. was excised and inoculated into the liquid medium. A 3-day old culture on Sabouraud's liquid medium was used for yeasts. The inoculum was 0.05 ml. per tube. All cultures were incubated at 25° C for 14 days.

Assay [1] concerns Ctenomyces mentagrophytes. Conditions: Ct.m., tested at 100, 10, 1 μg/ml; for MIC: Trichophyton mentagrophytes, 336 h, read-out: Concentrations in μg/ml for 100% Inhibition of Growth. Here is the method: as §1, §2
A further assay has as its system Trichophyton rubrum. As to conditions: Tr.r., tested at 100, 10, 1 μg/ml; for MIC: Trichophyton rubrum, 336 h, read-out: Concentrations in μg/ml for 100% Inhibition of Growth. The procedure:
as §1, §2

Another assay concerns Cryptococcus neoformans. Conditions: Cr.n., tested at 100, 10, 1 μg/ml; for MIC: Cryptococcus neoformans, 336 h, read-out: Concentrations in μg/ml for 100% Inhibition of Growth. The procedure:
as §1, §2

As to `Cc1cccc(C)c1N(C)C(=O)C[n+]1ccn(CC(OCc2ccc(Cl)cc2Cl)c2ccc(Cl)cc2Cl)c1` (centres unmarked), the MIC in the assay with Microsporum canis was 10 µg/mL; in assay [1], 10 µg/mL; in the assay with Trichophyton rubrum it was 1 µg/mL; in the assay with Cryptococcus neoformans, 10 µg/mL.
Take `CC(C(=O)Nc1ccccc1Cl)[n+]1ccn(CC(OCc2ccc(Cl)cc2Cl)c2ccc(Cl)cc2Cl)c1` (centres unmarked): the MIC was 10 µg/mL in the assay with Microsporum canis, 10 µg/mL in assay [1], 1 µg/mL in the assay on Trichophyton rubrum and 100 µg/mL with Cryptococcus neoformans.
For the compound `Cc1cccc(Cl)c1CNC(=O)C(C)[n+]1ccn(CC(OCc2ccc(Cl)cc2Cl)c2ccc(Cl)cc2Cl)c1` (centres unmarked), the MIC in the assay with Microsporum canis was 1 µg/mL; in assay [1], 1 µg/mL; with Trichophyton rubrum, 1 µg/mL; in the assay on Cryptococcus neoformans it was 100 µg/mL.
On to `O=C(C[n+]1ccn(CC(OCc2ccc(Cl)cc2Cl)c2ccc(Cl)cc2Cl)c1)c1cccs1` (centres unmarked), for which the MIC was determined as 10 µg/mL in the assay with Microsporum canis, 1 µg/mL in assay [1], 1 µg/mL with Trichophyton rubrum and 10 µg/mL in the assay with Cryptococcus neoformans.
Turning to `O=C(C[n+]1ccn(CC(OCc2ccc(Cl)cc2Cl)c2ccc(Cl)cc2Cl)c1)c1ccc(Cl)s1` (centres unmarked), the MIC with Microsporum canis was 1 µg/mL; in assay [1], 1 µg/mL; in the assay with Trichophyton rubrum, 1 µg/mL; in the assay with Cryptococcus neoformans, 10 µg/mL.
For the compound `OC(C[n+]1ccn(CC(OCc2ccc(Cl)cc2Cl)c2ccc(Cl)cc2Cl)c1)c1ccc(Cl)cc1` (centres unmarked), the MIC with Microsporum canis is 10 µg/mL; in assay [1], 1 µg/mL; in the assay on Trichophyton rubrum, 1 µg/mL; in the assay on Cryptococcus neoformans, 10 µg/mL.
Turning to “1-(β-butoxy2,4-dichlorophenethyl)-3-[p-chloro-a-(p-fluorophenyl)benzyl]imidazolium chloride”, the “Concentrations in μg/ml for 100% Inhibition of Growth” value in the assay with Microsporum canis was found to be 10 µg/mL; in assay [1], 10 µg/mL; in the assay on Trichophyton rubrum, 10 µg/mL; in the assay with Cryptococcus neoformans it was 100 µg/mL.
`Cc1ccccc1NC(=O)C[n+]1ccn(CC(OCc2ccc(Cl)cc2)c2ccc(Cl)cc2Cl)c1` (stereo not drawn) [2,4(Cl)2C6H3/CH2C6H4pCl/CH2CONHoCH3, 1-[2,4-Dichloro-β-(p-chlorobenzyloxy)phenethyl]-3-(N-o-tolylcarbamoymethyl)imidazolium cholride]: the MIC in the assay on Microsporum canis was 10 µg/mL; in assay [1] it was 1 µg/mL; in the assay with Trichophyton rubrum it was 1 µg/mL; in the assay on Cryptococcus neoformans, 10 µg/mL.
For the compound `C=CCOC(Cn1cc[n+](CC(=O)c2ccc(F)cc2)c1)c1ccc(Cl)cc1Cl` (stereo not drawn) [2,4(Cl)2C6H3/CH2CHCH2/CH2COC6H4pF, 1-[β-(alloyloxy)-2,4-dichlorophenethyl]-3-(p-fluorophenacyl)imidazolium chloride], the MIC in the assay on Microsporum canis was found to be 10 µg/mL; in assay [1] it was 10 µg/mL; with Trichophyton rubrum, 10 µg/mL; in the assay on Cryptococcus neoformans, 100 µg/mL.
`OC(C[n+]1ccn(CC(OCc2ccc(Cl)cc2)c2ccc(Cl)cc2Cl)c1)c1ccc(Cl)cc1` (centres unmarked) [2,4(Cl)2C6H3/drawing 65/CH2CHOHC6H4pCl]: the MIC with Microsporum canis was 1 µg/mL; in assay [1], 1 µg/mL; in the assay with Trichophyton rubrum it was 1 µg/mL; in the assay with Cryptococcus neoformans, 100 µg/mL.
On to `O=C(C[n+]1ccn(CC(OCc2ccc(Cl)cc2)c2ccc(Cl)cc2Cl)c1)c1ccc(F)cc1` (centres unmarked) [2,4(Cl)2C6H3/drawing 65/CH2COC6H4pF], for which the MIC in the assay on Microsporum canis stood at 1 µg/mL; in assay [1] it was 1 µg/mL; in the assay with Trichophyton rubrum it was 1 µg/mL; with Cryptococcus neoformans, 10 µg/mL.
As to `OC(C[n+]1ccn(CC(OCc2c(Cl)cccc2Cl)c2ccc(Cl)cc2Cl)c1)c1ccc(Cl)cc1` (centres unmarked) [2,4(Cl)2C6H3/drawing 66/CH2CHOHC6H4pCl], the MIC came to 10 µg/mL with Microsporum canis, 10 µg/mL in assay [1], 1 µg/mL in the assay on Trichophyton rubrum and 10 µg/mL in the assay on Cryptococcus neoformans.
In the case of `O=C(C[n+]1ccn(CC(OCc2c(Cl)cccc2Cl)c2ccc(Cl)cc2Cl)c1)c1ccc(F)cc1` (centres unmarked) [2,4(Cl)2C6H3/drawing 66/CH2COC6H4pF], the MIC in the assay on Microsporum canis came to 10 µg/mL; in assay [1], 10 µg/mL; with Trichophyton rubrum, 1 µg/mL; in the assay with Cryptococcus neoformans it was 10 µg/mL.
With `CCCCOC(Cn1cc[n+](CC(=O)Nc2ccc(F)cc2)c1)c1ccc(Cl)cc1Cl` (stereo not drawn) [2,4(Cl)2C6H3/nC4H9/CH2CONHC6H4pF, 1-(β-Butoxy-2,4-dichlorophenethyl)-3-[N-(p-fluorophenyl)carbamoylmethyl]imidazolium chloride], the MIC worked out at 10 µg/mL in the assay with Microsporum canis, 10 µg/mL in assay [1], 10 µg/mL in the assay on Trichophyton rubrum and 100 µg/mL with Cryptococcus neoformans.
Take `O=C(CCn1cc[n+](CC(OCc2ccc(Cl)cc2Cl)c2ccc(Cl)cc2Cl)c1)c1ccc(Br)cc1.[Cl-]` (stereo not drawn) [(CH2)2COC6H4pBr, 1-[2-(p-Bromobenzoyl)ethyl]-3-[2,4-dichloro-β-(2,4-dichlorobenzyloxy)phenethyl]imidazolium chloride]: the MIC in the assay on Microsporum canis turned out to be 10 µg/mL; in assay [1], 1 µg/mL; in the assay on Trichophyton rubrum, 1 µg/mL; in the assay on Cryptococcus neoformans, 1 µg/mL.
Consider `O=C(CCn1cc[n+](CC(OCc2ccc(Cl)cc2Cl)c2ccc(Cl)cc2Cl)c1)c1ccc(Cl)cc1.[Cl-]` (stereo not drawn) [(CH2)2COC6H4pCl, 1-[2-(p-Chlorobenzoyl)ethyl]-3-[2,4-dichloro-β-(2,4dichlorobenzyloxy)phenethyl]imidazolium chloride], for which the MIC (in the assay with Microsporum canis; in assay [1]; in the assay on Trichophyton rubrum; with Cryptococcus neoformans) was 1 µg/mL in each case.
Consider `O=C(CC[n+]1ccn(CC(OCc2ccc(Cl)cc2Cl)c2ccc(Cl)cc2Cl)c1)Nc1ccccc1[N+](=O)[O-].[Cl-]` (stereo not drawn) [(CH2)2CONHC6H4oNO2, 1-[2,4-Dichloro-β-(2,4-dichlorobenzyloxy)-phenethyl]-3-{2-[N-(o-nitrophenyl)carbamoyl]ethyl}imidazolium chloride], for which the MIC in the assay on Microsporum canis turned out to be 10 µg/mL; in assay [1], 1 µg/mL; with Trichophyton rubrum, 1 µg/mL; with Cryptococcus neoformans it was 100 µg/mL.
On to `Clc1ccc(NCCn2cc[n+](CC(OCc3ccc(Cl)cc3Cl)c3ccc(Cl)cc3Cl)c2)cc1.[Br-]` (stereo not drawn) [(CH2)2NHC6H4pCl, 1-[2-(p-chloroanilino)ethyl]-3-[2,4-dichloro-β-(2,4-dichlorobenzyloxy)phenethyl]imidazolium bromide], for which the MIC is 10 µg/mL in the assay on Microsporum canis, 10 µg/mL in assay [1], 10 µg/mL in the assay on Trichophyton rubrum and 1 µg/mL with Cryptococcus neoformans.
In the case of `Cc1cccc(C)c1OCC[n+]1ccn(CC(OCc2ccc(Cl)cc2Cl)c2ccc(Cl)cc2Cl)c1.[Br-]` (stereo not drawn) [(CH2)2OC6H32,6(CH3)2, 1-[2,4-Dichloro-β-(2,4-dichlorobenzyloxy)phenethyl]-3-[2-(2,6-xylyloxy)ethyl]imidazolium bromide], the MIC came to 10 µg/mL in the assay with Microsporum canis, 1 µg/mL in assay [1], 10 µg/mL with Trichophyton rubrum and 1 µg/mL with Cryptococcus neoformans.
For `Clc1ccc(COC(Cn2cc[n+](CCOc3ccc4ccccc4c3)c2)c2ccc(Cl)cc2Cl)c(Cl)c1.O.[Br-]` (stereo not drawn) [(CH2)2OC10H7, 1-[2,4-Dichloro-β-(2,4-dichlorobenzyloxy)phenethyl]3-[2-(2-naphthyloxy)ethyl]imidazolium bromide hydrate], the MIC stood at 10 µg/mL in the assay with Microsporum canis, 10 µg/mL in assay [1], 10 µg/mL in the assay on Trichophyton rubrum and 1 µg/mL in the assay with Cryptococcus neoformans.
With `Clc1ccc(COC(Cn2cc[n+](CCCOc3ccc4ccccc4c3)c2)c2ccc(Cl)cc2Cl)c(Cl)c1.O.[Cl-]` (stereo not drawn) [(CH2)3OC10H7, 1-[2,4-Dichloro-β-(2,4-dichlorobenzyloxy)phenethyl]-3-[3-(2-naphthyloxy)propyl]imidazolium chloride hydrate], the MIC in the assay on Microsporum canis is 10 µg/mL; in assay [1], 10 µg/mL; in the assay with Trichophyton rubrum, 10 µg/mL; in the assay with Cryptococcus neoformans, 100 µg/mL.
In the case of `Clc1ccc(C=CCn2cc[n+](CC(OCc3ccc(Cl)cc3Cl)c3ccc(Cl)cc3Cl)c2)c(Cl)c1.[Cl-]` (stereo not drawn) [CH2CHCHC6H3s,4(Cl)2, 1-(2,4-dichlorocinnamyl)-3-[2,4-dichloro-β-(2,4-dichlorobenzyloxy)phenethyl]-imidazolium chloride], the MIC in the assay on Microsporum canis stood at 10 µg/mL; in assay [1], 1 µg/mL; in the assay on Trichophyton rubrum it was 10 µg/mL; in the assay on Cryptococcus neoformans, 10 µg/mL.
As to `Clc1ccc(COC(C[n+]2ccn(CC=Cc3ccccc3)c2)c2ccc(Cl)cc2Cl)c(Cl)c1.[Cl-]` (stereo not drawn) [CH2CHCHC6H5, 1-Cinnamyl-3-[2,4-dichloro-β-(2,4-dichlorobenzyloxy)phenethyl]imidazolium chloride], the MIC in the assay on Microsporum canis turned out to be 10 µg/mL; in assay [1] it was 10 µg/mL; with Trichophyton rubrum, 1 µg/mL; with Cryptococcus neoformans it was 100 µg/mL.
